Source: PubChem BioAssay AID1322 (NMMLSC, 2008)
The source made the active and inactive calls. The rule behind the calls is not given here.

These molecules were tested against Bcl-2-like protein 1 (Homo sapiens) (UniProt Q07817) (assay: Bim-Bcl-XL interaction inhibitors, potency, dose response, biochemical, multiplexed, bead flow cytometry, human Bcl-XL (AID 1322; for inhibition: test concentration not given here)). Details: Bead-based flow cytometry, Bim peptide-Bcl-XL binding, MCF.
Chain of Bcl-2-like protein 1 (Homo sapiens) (Q07817 whole entry, looked up): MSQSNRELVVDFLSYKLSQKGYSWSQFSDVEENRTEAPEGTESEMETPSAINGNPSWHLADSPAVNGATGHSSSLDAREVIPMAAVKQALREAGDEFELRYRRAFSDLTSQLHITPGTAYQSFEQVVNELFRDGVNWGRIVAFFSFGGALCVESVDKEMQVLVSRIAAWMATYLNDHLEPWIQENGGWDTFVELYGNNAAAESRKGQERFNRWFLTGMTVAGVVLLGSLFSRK

EC50, inactive:
Clc1nc2ccccc2cc1/C=N/Nc1nc2ccccc2[nH]1

outcome, inactive:
COc1cc(/C=N/Nc2nc3c(c(=O)n(C)c(=O)n3C)n2Cc2ccccc2)ccc1OC(=O)c1ccco1, COc1ccccc1N(C)S(=O)(=O)c1ccc(C(=O)OCC(N)=O)cc1, COc1ccc(S(=O)(=O)NCCOc2cccc3cccnc23)cc1OC, Cn1c(CCNC(=O)C2CCCCC2)nc2cc(NC(=O)c3cccs3)ccc21, COc1ccc(C)cc1Nc1ccc(C(=O)O)cc1[N+](=O)[O-], COc1ccc(CN(CC(=O)NC2CCCC2)C(=O)CCC(=O)Nc2cc(C)on2)cc1, CCOc1cc(NC(=S)NC)c(OCC)cc1NC(=O)c1ccc(OC)cc1, BrC(=C\c1ccccc1)/C=N/N1CCN(c2ccccc2)CC1, Cc1cc(-c2nnc(CCC(=O)NC(C)c3cccc4ccccc34)o2)no1 (stereo not drawn), Clc1ccc2c(N/N=C/c3ccc(Br)cc3)ccnc2c1, CSc1ccccc1NC(=O)CN(C)CC(=O)Nc1ccc(N2CCOCC2)cc1, CC1CC2=C(NC(=S)NC2c2ccccc2F)/C(=C/c2ccccc2F)C1 (stereo not drawn), O=C(C1CCC(Cn2c(=S)[nH]c3ccccc3c2=O)CC1)N1CCN(c2ccccn2)CC1 (stereo not drawn), CCOC(=O)C1=C(CC)Nc2ccccc2N=C1NC(=O)c1ccc(S(=O)(=O)N2CCOCC2)cc1, CNC(=O)CC1C(=O)N(Cc2ccccc2)C(=S)N1NC(=O)c1cccc(F)c1 (stereo not drawn), CCCCC(C(=O)OCC)C(N)Cc1ccc(F)cc1 (stereo not drawn), O=C1N/C(=C/c2cccn2-c2ccccc2)C(=O)N1Cc1ccc(F)cc1, C/C(=N/NC(=O)c1cc(O)c(O)c(O)c1)c1ccc([N+](=O)[O-])cc1, CCOc1ncccc1C(=O)OC(C)C(=O)Nc1ccc(CC)cc1 (stereo not drawn), CC(=O)Nc1ccc2nc(CN3CCN(CC(C)C)C(CCO)C3)ccc2c1 (stereo not drawn), COc1cc(/C=C2/NC(=O)N(Cc3ccccc3F)C2=O)ccc1O

Same assay, conditions: Bead-based flow cytometry, Bim peptide-Bcl-XL binding, MCF

inhibition, inactive:
CN(C(=O)NC1CCCCC1)c1ccccc1, COc1ccc(COC(=O)NNC(=O)c2ccccc2Cl)cc1, COc1ccc(OC)c(-n2c(-c3ccc(C)cc3)n[nH]c2=S)c1, COc1ccccc1Oc1ccc2c(c1)C(=O)N(c1ccccc1)C2=O, COc1ccccc1Oc1ccc2c(c1)C(=O)N(c1cccc3ncccc13)C2=O, Cc1ccc(-c2nnc(Cc3ccc(Cl)cc3)o2)cc1, COc1ccc(NC(=O)c2ccc3c(c2)NC(=O)CS3)cc1S(=O)(=O)Nc1ccc(Br)cc1, CC(C)c1ccc(/C=N/NC(=O)c2ccccc2Cl)cc1, COc1ccc(N2CC(C(=O)Nc3nnc(SCC(=O)c4ccccc4)s3)CC2=O)cc1 (stereo not drawn), O=C(CSc1nc2ccsc2c(=O)n1Cc1ccc(C(=O)O)cc1)NCC1CCCO1 (stereo not drawn), COc1ccc(C2(NC(C)=O)CCN(C(=O)c3ccco3)CC2)cc1, Cc1cc(C)c2nc3nc(C)c(C)cc3c(N)c2c1, Cc1cc(NC(=O)CSc2nnc(-c3cccnc3)n2Cc2ccccc2)no1, COc1ccc2nc(C)cc(SCC(=O)N/N=C/c3ccc(O)cc3O)c2c1, O=C(Nc1cccc(Cl)c1)Nc1ccc(Cl)cn1, Cc1nc2cc(F)ccc2n1C1CCN(C(=O)c2c(F)cccc2F)CC1, O=C(CSc1nnc(Cc2ccccc2)o1)NCc1ccco1, Cc1ccc(-c2n[nH]c(=S)n2-c2ccccc2)cc1, Cc1ccc(-c2cc(-c3ccc(F)cc3)c(C#N)c(N)n2)o1, Clc1ccc2c(N/N=C/c3cccc(Br)c3)ccnc2c1, COc1ccc(N2C(=O)C(Cl)=C(Nc3c(C)n(C)n(-c4ccccc4)c3=O)C2=O)cc1, COc1cc(C2Nc3cccc4cccc(c34)N2)cc(OC)c1O, Clc1ccc2c(N/N=C/c3ccccc3Br)ccnc2c1, O=[N+]([O-])c1c(NCCCO)cc(Sc2nc3ccccc3s2)c2nonc12, CCOC(=O)c1sc(N)c(C(=O)Nc2ccccc2OC)c1C, CN1/C(=C\C(=O)Nc2ccc(Cl)cc2)C(C)(C)c2ccccc21, Cc1[nH]c2ccccc2c1C(=O)COC(=O)c1c(-c2c(F)cccc2Cl)noc1C, Cc1csc(SCCn2c(N3CCN(c4ccccc4)CC3)nc3c2c(=O)[nH]c(=O)n3C)n1, CC(CCc1ccccc1)NC(=O)C1CCN(S(=O)(=O)N2CCCCC2)CC1 (stereo not drawn), Nc1ccc(N2CCN(CCCCN3C(=O)C4CCCN4C3=O)CC2)cc1 (stereo not drawn), N/C(=N\N=C/c1ccc(Br)cc1)N/N=C\c1ccc(Br)cc1, CS(=O)(=O)NN1C(=O)c2ccccc2NC1c1cccs1 (stereo not drawn), CCOC(=O)c1sc(NC(=O)c2ccncc2)c(C#N)c1C, COc1ccccc1-n1c(-c2cc(-c3ccc(F)cc3)n[nH]2)n[nH]c1=S, Nc1ccc(N2CCCCCC2)cc1, Cc1cc(C)nc(/N=c2/ssnc2Cl)c1, O=C1c2ccccc2C(=O)N1CN(C(=O)COc1ccc(Cl)cc1Cl)c1cccc(F)c1, CC1Nc2ccccc2C(=O)N1NS(C)(=O)=O (stereo not drawn), CC(C)(C)NC(=O)COc1ccc(CNc2ccc3[nH]c(=O)[nH]c3c2)cc1, C=CCn1c(C)c(C(C)=O)c(N2CCOCC2)nc1=S, CC(=O)Nc1ccc(-n2cc(-c3ccccc3)[nH]c2=S)cc1, CCOc1cc(CNc2ccc(N(C)C)cc2)cc(Br)c1OCC(=O)NC(C)(C)C, O=C(O)CCN1C(=O)/C(=C\c2ccc(-c3nc4ccccc4s3)o2)SC1=S, Cc1cc(NC(=O)CCCC(=O)N(CC(=O)NC2CCCCC2)c2ccccc2)no1, O=C(COc1ccccc1)N1CCN(c2ncnc3c2cnn3-c2ccccc2)CC1, Cc1onc(-c2ccccc2Cl)c1C(=O)Nc1nn[nH]n1, COc1ccc(C(=O)Nc2ccc(C(=O)OCC(=O)c3cccc4ccccc34)cc2)cc1, CCOc1cc(/C=C2/N=C(C)C(C(=O)OC)=C2O)ccc1O, Cc1ccc(Nc2nc(-c3ccccc3)c(CC(=O)O)s2)cc1, O=C1NCCN1C(=O)N(c1ccccc1)c1ccccc1, CCCOc1ccc(-c2c(C(=O)N/N=C/c3ccc(OC)cc3)nnn2-c2nonc2N)cc1, Cc1ccc2c(c1)c(C)c(C)n2CC(O)Cn1nc(C)c(Br)c1C (stereo not drawn), CC(C)Cc1cc(-c2ccco2)c(C#N)c(N)n1, COc1ccc(-c2noc(COc3ccc4c(c3)OCO4)n2)cc1OC, O=[N+]([O-])c1cccc(S(=O)(=O)NCC2CCCO2)c1 (stereo not drawn), COc1ccccc1-n1c(-c2ccccc2)c[nH]c1=S, CCOc1ccc(CNc2ccc(N3CCCC3)cc2)cc1, Cc1ccccc1-c1nc(-c2ccc(NC(=O)c3ccc4c(c3)OCO4)cc2)no1, CCOc1ccc(NCc2ccccc2OCc2cccc(F)c2)cc1, Brc1ccc2ncnc(Nc3ccc(N4CCOCC4)cc3)c2c1, CCN1/C(=C/c2ccc3cc(C)cc(C)c3[n+]2CC)Sc2cc(C)ccc21, Cc1cc(/C=C(/C#N)C(=O)Nc2ccc(Cl)cc2)c(C)n1-c1cccnc1, Cc1cc(N2CCN(C)CC2)nc2ccc(NC(=S)N3CCN(c4ccc(F)cc4)CC3)cc12, CCOC(=O)CCCNC(=O)c1cncc(O)c1, O=C(Nc1ccc2nc(-c3ccco3)c(-c3ccco3)nc2c1)N1CCN(c2ccccn2)CC1, C=CCn1c(SCC(=O)Nc2ccc3c(c2)OCO3)nnc1-c1cc(Br)ccc1O, Cc1onc(-c2ccccc2)c1C(=O)Nc1nnc(COc2ccc(Cl)cc2)s1, CCOc1ccccc1C(=O)NC1CC2CCCC(C1)N2C1CC1 (stereo not drawn), N/C(Cc1ccc(Cl)c(Cl)c1)=N\OC(=O)c1cccs1, CCN1CCN(c2ccc(NC(=O)c3ccc4c(c3)[nH]c(=O)n4Cc3ccc(OC)cc3)cc2)CC1, O=[N+]([O-])c1ccc(N2CCN(c3ccc(O)cc3)CC2)c(Cl)c1, Cc1ccc(-c2cc(-c3ccc(C)o3)nc(N)c2C#N)cc1, O=C(N/N=C/c1ccncc1)c1cccc(NC(=O)c2ccccc2Cl)c1, O=C(NCCN1CCOCC1)c1cc(Cl)ccc1[N+](=O)[O-], Cc1ccc(S(=O)(=O)N2CCCCC2)cc1NC(=O)COC(=O)c1ccccc1F, O=C(CSc1nnc(-c2ccccc2)c(-c2ccccc2)n1)N1CCc2ccccc21, Cc1c(N=C2C=CC(=O)c3ccccc32)c(=O)n(-c2ccccc2)n1C, CN1CCS/C1=C/C=C1/SC(=S)N(Cc2ccccc2)C1=O, O=C(C[n+]1ccc(-c2nnc3n2CCC3)cc1)c1ccc(Cl)c(Cl)c1, CCOC(=O)CSC1=NC(=O)/C(=C\c2ccc(OC(C)=O)cc2)S1, COc1ccc(NC(=O)c2cc(-c3ccc(C)o3)nc3ccccc23)cc1OC
